According to patent publication US6399570B1, “Antimicrobial/endotoxin neutralizing polypeptide” (priority 1999, dated 2002):

Experiments:
N. min. LPS = assay: Limulus ELISA, ENC50 against N. min. LPS; type: biochemical, Neisseria meningitidis; settings: endotoxin 200 EU/ml; mean +/− SD
Method: (§1) The peptide-mediated inhibition of endotoxin-induced Limulus amebocyte lysate (LAL) coagulation was measured with a sensitive LAL assay (Zhang et al., J. Clin. Microbiol. 32: 416-422 (1994)). Limulus ELISA is an endotoxin assay based on activation of the LAL coagulation by endotoxin and detection of the generated peptide-C immunoreactivity with an ELISA using a monoclonal antibody to the polypeptide. Endotoxin was defined to be neutralized when it lost its ability to activate the LAL enzymes. The 50% endotoxin-neutralizing concentration (ENC50) reflects the potency of an anti-endotoxin agent; a low ENC50 indicates high potency. Table 2 lists the determined ENC50 value of each anti-endotoxin agent against lipid A and four different types of LPS. The potency of each anti-endotoxin agent varied depending on the type of endotoxin. […] The only difference between the sequence of LF-33 and LF-27 is that LF-27 lacks the first six residues (GRRRRS) at the N-terminus of LF-33. Remarkably, this deletion led to dramatic loss of the endotoxin-neutralizing capacity of the polypeptide in this assay. Binding of serum proteins to endotoxin neutralizes the endotoxin activity in this assay by preventing endotoxin from activating LAL (Emancipator et al., Infect. Immun. 60: 596-601 (1992)).
(§2) LPS. […] LPS (purity >99%) from Neisseria meningitidis was prepared from the group B strain #6275 and its potency was 25 EU/ng. […] The potency of the above endotoxin was determined with the Limulus enzyme-linked immunosorbent assay (ELISA, 43) in comparison with US Pharmacopeia reference standard endotoxin EC-5.
(§3) Briefly, 25 μl endotoxin solution (200 EU/ml) was mixed with an equal volume of test materials in a series of two-fold dilution in 0.15 M NaCl in a sterile 96-well tissue culture plate (Nunc A/S, Roskilde, Denmark), and incubated at 37° C. for 1 h in a dry-air incubator. […] The endotoxin activity was then quantified with the use of Limulus ELISA (Zhang et al., J. Clin. Microbiol. 32: 416-422 (1994)). […] The high sensitivity of the assay allowed for very low levels of the endotoxin activity to be detected. […]

E. coli LPS = assay: Limulus ELISA, ENC50 against E. coli LPS; type: biochemical, Escherichia coli O113:H10
Method: as §1, §2, §3

E. coli 0111 = assay: Antimicrobial assay for LF polypeptides (CFU after 6 h); type: cell-based
Method: The antimicrobial activity of the catheptic polypeptide was measured against a clinical isolate, E. coli 0111. […] The 6 kDa catheptic fragment of LF is therefore at least as potent as twelve other natural antimicrobial polypeptides (H. G. Boman, J. Marsh, and J. A. Goode, Eds., Antimicrobial Peptides, (John Wiley & Sons Ltd., New York, N.Y., 1994)), and can function as a bactericidal agent. […] At 100 μM polypeptide, the number of viable bacteria was more than 1,000-fold greater in the cultures treated with the pepsinolytic versus cathepsinolytic fragment (FIG. 1). The basis for this difference in potency may be related to the additional, internal, pepsin cleavages which occur between the two disulfide bridges in the 6 kDa domain (Mann et al., J. Biol. Chem. 269: 23661-7 (1994); Bellamy et al., Biochim. Biophys. Acta 1121: 130-6 (1992)).
Antimicrobial assay for LF polypeptides. Cultures of E. coli 0111 (American Type Culture Collection #43887) were grown at 37° C. in 1% bactopeptone (BP) (Difco) in Dulbecco's phosphate buffered saline (dPBS) (Mediatech) with aeration by shaking (225 rpm). overnight cultures were diluted 8,000-fold in 2×concentrated BP/dPBS and mixed with an equal volume of sterile endotoxin-free distilled water containing serial dilutions of the polypeptide to be tested. The final assay volume was […] in a 12 mm×75 mm polypropylene tube (Falcon) with an ultimate dilution of the overnight cultures of 1:16,000 to yield an original inoculum of ˜1-2×10^4 CFU/ml. The final assay medium was physiological in ionic strength, 1% bactopeptone in 1×Dulbecco's phosphate buffered saline. Cultures were grown for 6 h at 37° C. with aeration as above and then cell density determined by measuring CFU/ml for each assay culture tube. Serial dilutions of each assay tube were plated on Luria Broth bactoagar and incubated for 24 h at 37° C. prior to counting colonies. All assays were done in triplicate and the standard deviation calculated for each concentration of inhibitor. Culture density at the beginning and end of the 6 h growth period was also determined from triplicate cultures lacking any polypeptide inhibitors. Untreated cultures typically grew to 1-2×10^8 CFU/ml in 6 h under these assay conditions.

E. coli = assay: Ionic strength effect on antimicrobial activity; type: cell-based; settings: 25 μM polypeptide
Method: For example, reducing the ionic strength from 150 mM NaCl to 50 mM NaCl reduces the number of viable bacteria after exposure by ˜10,000-fold.
Determining ionic strength effect on antimicrobial activity. E. coli were cultured overnight as described earlier. […] To control for the effects of salt alone on culture growth, the ratio of CFU in polypeptide treated cultures to that in untreated control cultures, grown in the same salt concentration but lacking any polypeptide treatment, was calculated for each salt concentration examined. These values were then normalized to the ratio calculated for CFUs measured at […], the lowest salt concentration tested, and plotted on the Y-axis versus increasing concentration of salt on the X-axis.

CSCC[C@H](NC(=O)[C@H](CC(N)=O)NC(=O)[C@H](CCCNC(=N)N)NC(=O)[C@H](CCC(N)=O)NC(=O)[C@H](Cc1c[nH]c2ccccc12)NC(=O)[C@H](CCC(N)=O)NC(=O)[C@H](Cc1ccccc1)NC(=O)[C@H](CS)NC(=O)[C@H](CCCCN)NC(=O)[C@@H](NC(=O)[C@H](C)NC(=O)[C@H](CCC(=O)O)NC(=O)[C@@H]1CCCN1C(=O)[C@H](CCC(N)=O)NC(=O)[C@H](CO)NC(=O)[C@@H](NC(=O)[C@H](C)NC(=O)[C@H](CS)NC(=O)[C@H](Cc1c[nH]c2ccccc12)NC(=O)[C@H](CCC(N)=O)NC(=O)[C@@H](N)C(C)C)C(C)C)[C@@H](C)O)C(=O)N[C@@H](CCCNC(=N)N)C(=O)N[C@@H](CCCCN)C(=O)N[C@H](C(=O)N[C@@H](CCCNC(=N)N)C(=O)NCC(=O)N1CCC[C@H]1C(=O)O)C(C)C [LF-27]
ENC50 against N. min. LPS (N. min. LPS): no detectable activity | IC50 (N. min. LPS): > 300 µM | fold less potent than LF-33 at neutralizing E. coli LPS (E. coli LPS): approximately 10 fold | IC50 (E. coli LPS; endotoxin 200 EU/ml, mean +/− SD): 7.45 µM

6 kDa polypeptide: 6 kDa fragment produced by cathepsin D digestion of human LF, amino acids 1-49 of SEQ ID NO: 2 (GRRRRSVQWCAVSQPEATKCFQWQRNMRKVRGPPVSCIKRDSPIQCIQA; listed as Homo sapiens)
reduction in cell growth (E. coli 0111; 100 μM polypeptide): greater than 10,000 fold | number of viable CFUs (E. coli 0111; 100 μM polypeptide, original inoculum 2.14×10^4 CFU/ml): 8.8×10^3 CFU/ml | minimum inhibitory concentration (MIC) (E. coli 0111; E. coli 0111, physiological ionic strength, 6 h, CFU): 1 to 5 µM | potency against bacteria relative to the fragment liberated by pepsin (E. coli 0111; from MICs): ~10 fold | reduction of number of viable bacteria on reducing ionic strength (E. coli; from 150 mM NaCl to 50 mM NaCl): ~10,000 fold | growth inhibiting activity at elevated ionic strength (E. coli; ionic strengths equal to or greater than 200 mM NaCl): essentially lost
